Results reported in patent US4297346A, “Pseudopeptides used as medicaments” (priority 1976, dated 1981).

Experiments:
[1] = system: mouse; experiment: Study of the toxicity in the mouse; assay type: in vivo
Procedure: study of the toxicity in the mouse.
(§1) A comparison of these three substances, pGlu-Amph, pGlu-His-Amph and pGlu-His-Pro-Amph, with amphetamine, has been able to be carried out as follows; for this purpose, the products were administered systematically by intraperitoneal route and by oral route, it being possible for this latter procedure to verify the generally admitted assertion of a gastric hydrolysis of peptides; in this case, the action of the amphetamine should be integrally re-established.

[2] = Potentialisation of the toxicity of amphetamine by TRH; assay type: in vivo
[3] = system: rat; experiment: Induction of stereotype movements in the rat; assay type: in vivo
Procedure: induction of stereotypes in the rat,
as §1
B--Induction of stereotype movements

[4] = system: mouse; experiment: Action on the rectal temperature in the mouse (amphetamic pseudopeptides); assay type: in vivo; details: for dose causing a hypothermia 30 minutes after injection: small doses
Procedure: action on the rectal temperature in the mouse.
as §1
A--Action on the rectal temperature in respect of the mouse

[5] = system: mouse; experiment: Potentialisation of the group toxicity to amphetamine; assay type: in vivo
Procedure: (§2) The different tests which are carried out on mice by the known techniques comprise:
the potentialisation of the group toxicity to amphetamine,
(3) Group toxicity in respect of amphetamine

[6] = system: mouse; experiment: Action on the rectal temperature of the mouse (pGlu-His-dopamine); assay type: in vivo
Procedure: as §2
the action on the rectal temperature of the mouse,
(1) Action on the rectal temperature

[7] = system: mouse; experiment: Jumping effects with L-DOPA in mice which have received d-amphetamine; assay type: in vivo; details: for jumping effects (in words): counted for 90 minutes, L-DOPA 100 mg/kg intraperitoneally
Procedure: as §2
the jerking movements with L-DOPA.
(4) Jumping effects with L-DOPA

[8] = system: mouse; experiment: Anti-reserpine action (interaction with reserpine); assay type: in vivo
Procedure: as §2
the anti-reserpine action,
(2) Interaction with reserpine

[9] = in vivo
[10] = system: serotonin; details: 4-nitro-amphetamine: in 4 hours, still perceptive two weeks later; cited from earlier work
[11] = system: tryptophane hydroxylase; details: 4-nitro-amphetamine: in 4 hours, still perceptive two weeks later; cited from earlier work
[12] = intraperitoneal route, 400 mg/kg
[13] = intraperitoneal route, 600 mg/kg

CC(N)Cc1ccccc1 (centres unmarked) [amphetamine, reference compound]
signs observed with toxic dosages ([1]; intraperitoneal route): general syndrome of excitation
LD50 of amphetamine ([2]; amphetamine alone): 17.8 mg/kg
LD50 of amphetamine ([2]; with TRH at 25 mg/kg by subcutaneous application): 5.7 mg/kg
dosage at which the maximum amplitude of stereotype movements is achieved ([3]; intraperitoneal route): 10 mg/kg
induction of stereotype movements (in words) ([3]; intraperitoneal route): causes stereotype movements
duration of the stereotype movements ([3]; intraperitoneal route, 10 mg/kg): ≤ 5 h
induction of stereotype movements (in words) ([3]; oral route): less significant intensity and of slightly longer duration than by the intraperitoneal route
dose from which a hyperthermia appears ([4]; intraperitoneal route): ≥ 4 mg/kg
time after which the temperature of the treated animals is again that of the controls ([4]; intraperitoneal route): 2 h
time of the maximum of the hyperthermia ([4]; intraperitoneal route): 30 min
dose causing a hypothermia 30 minutes after injection ([4]; intraperitoneal route): 1 mg/kg
action on the rectal temperature (in words) ([4]; oral route): substantially the same as when applied intraperitoneally
dose still causing a hypothermia ([4]; oral route): 4 mg/kg

CC(Cc1ccccc1)NC(=O)[C@@H]1CCCN1C(=O)[C@H](Cc1c[nH]cn1)NC(=O)[C@@H]1CCC(=O)N1 (stereo partly drawn) [pGlu-His-Pro-Amph, pGlu--His--Pro--Amph]
mortality ([1]; oral route, 1000 mg/kg): 25%
time to death ([1]; oral route, 1000 mg/kg): 48 h

NC(=O)[C@@H]1CCCN1C(=O)[C@H](Cc1cnc[nH]1)NC(=O)[C@@H]1CCC(=O)N1 [TRH, pGlu-His-Pro-NH2]
effect on the toxicity of amphetamine ([2]; 25 mg/kg, subcutaneous application): potentialises the toxicity of the amphetamine

N[C@@H](Cc1ccc(O)c(O)c1)C(=O)O [L-DOPA]
behavioural effect in amphetamine group toxicity test (in words) [5]: extreme agitation
action on the rectal temperature (in words) [6]: hypothermia
jumping effects (in words) [7]: numerous jumping actions
action on the effects of reserpine (temperature, ptosis) ([8]; 400 mg/kg intraperitoneally): antagonises the effects of the reserpine on the temperature and the dropping of the eyelids
action on the effects of reserpine ([8]; oral administration, same dosage (400 mg/kg)): not found

pGlu--His--Amph [pGlu-His-Amph]
toxicity versus amphetamine (summary) ([1]; in vivo): less than that of amphetamine
mortality [1, 12]: 10%
time after which agitation is established [1, 12]: 30 min
dead mice [1, 13]: 6 mice out of 10
time to death [1, 13]: less than 30 minutes
time to death ([1]; intraperitoneal route, 800 mg/kg): less than 3 min
duration of stereotypic movements observed in the toxicity study ([1]; oral route): more than 24 hours
mice dead ([1]; oral route, 2400 mg/kg): 50%
immediate death ([1]; oral route, even with 2400 mg/kg): no longer observed
duration of action in the stereotyped movements test versus amphetamine (summary) ([3]; in vivo): much longer lasting action
dosage of contained amphetamine versus dosage of amphetamine causing an equal intensity of stereotypes ([3]; intraperitoneal route): three times greater
induction of stereotype movements (in words) ([3]; intraperitoneal route): also causes stereotypes
duration of the stereotype movements ([3]; intraperitoneal route, strongest dosage): exceeds 7 hours
duration of the stereotyped movements ([3]; oral route): 271/2
induction of stereotype movements (in words) ([3]; oral route): much greater effect as regards intensity and duration than when applied intraperitoneally
time the action takes to appear ([3]; oral route): about 3 hours
time of the maximum of the hypothermia ([4]; intraperitoneal administration): 1 h
action on the rectal temperature (in words) ([4]; intraperitoneal route): always produces a hypothermia
dose from which a hyperthermia appears ([4]; intraperitoneal route): above 50 mg/kg
time of the maximum of the hyperthermia ([4]; intraperitoneal route): approximately 3 hours
action on the rectal temperature (in words) ([4]; oral route): always causes a hypothermia followed by a hyperthermia proportional to the administered dose
time of the maximum of the hypothermia ([4]; oral route): 2 h

pGlu--His--DA [pGlu-His-dopamine]
time of onset of the antioxotremorine action [9]: 15 min
behavioural effect in amphetamine group toxicity test (in words) [5]: identical with those of dopamine
action on the rectal temperature (in words) [6]: highly significant hypothermia
time of occurrence of the hypothermia ([6]; relatively high dosage): 15 min
delay in the occurrence of the jumping effects versus L-DOPA [7]: greater
total number of jumps recorded versus L-DOPA [7]: smaller than that with L-DOPA
jumping effects (in words) [7]: the same as with L-DOPA
action on the effects of reserpine (temperature, ptosis) ([8]; 400 mg/kg intraperitoneally): slightly counteracts simultaneously the ptosis and the fall in temperature
duration of the anti-reserpine action ([8]; 400 mg/kg intraperitoneally): less than 11/2

CC(N)Cc1ccc(N)cc1 (centres unmarked) [4-amino-amphetamine, p-amino-amphetamine]
effect on the amount of serotonin [10]: increase in the amount of serotonin
effect on the activity of the tryptophane hydroxylase [11]: not modified to any appreciable degree

NCCc1ccc(O)c(O)c1 [Dopamine, dopamine]
time after the injection of amphetamine at which the effect is developed [5]: about 20 minutes
action on the rectal temperature (in words) [6]: hypothermal action, but the amplitude thereof is much smaller
jumping effects (in words) [7]: no jumping effects are produced
effect on the reserpine fall in temperature [8]: small effect
effect on reserpine ptosis ([8]; effect not lasting): completely counteracts ptosis

CC(Cc1ccccc1)NC(=O)C1CCC(=O)N1 (centres unmarked) [pGlu-Amph, pGlu--Amph]
dosage causing mortality of 50% (LD50) ([1]; intraperitoneal route): about 40 mg/kg
signs observed with toxic dosages ([1]; intraperitoneal route): general syndrome of excitation
mortality (in words) ([1]; oral route, 30 mg/kg): does not cause any death
mortality ([1]; oral route, 100 mg/kg): 100%
induction of stereotype movements (in words) ([3]; intraperitoneal route): completely identical with that of amphetamine
effect versus that produced by the equivalent amphetamine dose ([3]; intraperitoneal route, dose transformed into contained amphetamine): almost identical or is slightly smaller
doses versus doses of amphetamine producing a similar/equivalent effect ([3]; oral route): practically equivalent
action on the rectal temperature (in words) ([4]; intraperitoneal route): very close to that of amphetamine
dose from which a hyperthermia appears ([4]; intraperitoneal route): ≥ 10 mg/kg
period of the action compared with amphetamine ([4]; intraperitoneal route): the same
time of the maximum of the hyperthermia ([4]; intraperitoneal route): 60 min
dose causing a hypothermia 30 minutes after injection ([4]; intraperitoneal route): 5 mg/kg
action on the rectal temperature (in words) ([4]; oral route): modelled on that of the amphetamine

CC(N)Cc1ccc([N+](=O)[O-])cc1 (centres unmarked) [4-nitro-amphetamine, p-nitro-amphetamine]
effect on the amount of serotonin [10]: depletion of serotonin
effect on the activity of the tryptophane hydroxylase [11]: decrease in the activity of the tryptophane hydroxylase
